Earlier results on one compound are cited in PubChem BioAssay AID1259409 (Chemical Carcinogenesis Research Information System (CCRIS), 2018).

This series deals with rodent chemically induced tumor inhibition, incidence and multiplicity. Nature of the series: CCRIS tumor inhibitor studies. Particulars: Route [Inhibitor]: ORAL, Species: RAT, Promoter: NONE USED.

`CC1=C(/C=C/C(C)=C/C=C/C(C)=C/C(=O)NCCO)C(C)(C)CCC1`: the “tumour outcome (control, treated, inhibition, significance)” value is listed as 10/39 (26%), 5/30 (17%), 35%, not significant (Carcinogen: 1,2-DIMETHYLHYDRAZINE, 540-73-8, Dose [Inhibitor]: 2 MMOL/KG DIET DAILY STARTING 12 D AFTER CARCINOGEN TREATMENT THROUGH ABOUT 8 MO AFTER CARCINOGEN DOSE (STUDY DURATION:, Strain/Sex: F344/MALE, Target Tissue: Type of Lesion: COLON: ADENOCARCINOMA, Dose [Carcinogen]: 150 MG/KG BW ONCE); 23/39 (59%), 11/30 (37%), 37%, not significant (Carcinogen: 1,2-DIMETHYLHYDRAZINE, 540-73-8, Dose [Inhibitor]: 2 MMOL/KG DIET DAILY STARTING 12 D AFTER CARCINOGEN TREATMENT THROUGH ABOUT 8 MO AFTER CARCINOGEN DOSE (STUDY DURATION:, Strain/Sex: F344/MALE, Target Tissue: Type of Lesion: COLON: ADENOMA, Dose [Carcinogen]: 150 MG/KG BW ONCE); 50%, 25%, 50%, not significant (Carcinogen: L-AZASERINE, 115-02-6, Dose [Inhibitor]: 1 MMOL/KG DIET DAILY FOR 358 D STARTING 1 WK AFTER COMPLETION OF CARCINOGEN TREATMENT (STUDY DURATION: 66 WK), Strain/Sex: WISTAR-LEWIS/FEMALE, Target Tissue: Type of Lesion: PANCREAS: ADENOMA, Dose [Carcinogen]: 10 MG/KG BW 1/WK FOR 15 WK); 8%, 25%, -213%, not calculated (Carcinogen: L-AZASERINE, 115-02-6, Dose [Inhibitor]: 1 MMOL/KG DIET DAILY FOR 358 D STARTING 1 WK AFTER COMPLETION OF CARCINOGEN TREATMENT (STUDY DURATION: 66 WK), Strain/Sex: WISTAR-LEWIS/FEMALE, Target Tissue: Type of Lesion: PANCREAS: CARCINOMA IN SITU, Dose [Carcinogen]: 10 MG/KG BW 1/WK FOR 15 WK); 13%, 0%, 100%, not significant (Carcinogen: L-AZASERINE, 115-02-6, Dose [Inhibitor]: 1 MMOL/KG DIET DAILY FOR 358 D STARTING 1 WK AFTER COMPLETION OF CARCINOGEN TREATMENT (STUDY DURATION: 66 WK), Strain/Sex: WISTAR-LEWIS/FEMALE, Target Tissue: Type of Lesion: PANCREAS: CARCINOMA, Dose [Carcinogen]: 10 MG/KG BW 1/WK FOR 15 WK); 71%, 50%, 30%, p 0.14 (Carcinogen: L-AZASERINE, 115-02-6, Dose [Inhibitor]: 1 MMOL/KG DIET DAILY FOR 358 D STARTING 1 WK AFTER COMPLETION OF CARCINOGEN TREATMENT (STUDY DURATION: 66 WK), Strain/Sex: WISTAR-LEWIS/FEMALE, Target Tissue: Type of Lesion: PANCREAS: NEOPLASM, Dose [Carcinogen]: 10 MG/KG BW 1/WK FOR 15 WK). Besides, the “tumour outcome (control, treated, inhibition, significance)” value is reported as 25%, 56%, -124%, not calculated (Carcinogen: L-AZASERINE, 115-02-6, Dose [Inhibitor]: 1 MMOL/KG DIET DAILY FOR 358 D STARTING 1 WK AFTER COMPLETION OF CARCINOGEN TREATMENT (STUDY DURATION: 66 WK), Strain/Sex: WISTAR-LEWIS/MALE, Target Tissue: Type of Lesion: PANCREAS: ADENOMA, Dose [Carcinogen]: 10 MG/KG BW 1/WK FOR 15 WK); 29%, 28%, 3%, not significant (Carcinogen: L-AZASERINE, 115-02-6, Dose [Inhibitor]: 1 MMOL/KG DIET DAILY FOR 358 D STARTING 1 WK AFTER COMPLETION OF CARCINOGEN TREATMENT (STUDY DURATION: 66 WK), Strain/Sex: WISTAR-LEWIS/MALE, Target Tissue: Type of Lesion: PANCREAS: CARCINOMA IN SITU, Dose [Carcinogen]: 10 MG/KG BW 1/WK FOR 15 WK); 46%, 8%, 83%, p<0.05 (Carcinogen: L-AZASERINE, 115-02-6, Dose [Inhibitor]: 1 MMOL/KG DIET DAILY FOR 358 D STARTING 1 WK AFTER COMPLETION OF CARCINOGEN TREATMENT (STUDY DURATION: 66 WK), Strain/Sex: WISTAR-LEWIS/MALE, Target Tissue: Type of Lesion: PANCREAS: CARCINOMA, Dose [Carcinogen]: 10 MG/KG BW 1/WK FOR 15 WK); 100%, 92%, 8%, not significant (Carcinogen: L-AZASERINE, 115-02-6, Dose [Inhibitor]: 1 MMOL/KG DIET DAILY FOR 358 D STARTING 1 WK AFTER COMPLETION OF CARCINOGEN TREATMENT (STUDY DURATION: 66 WK), Strain/Sex: WISTAR-LEWIS/MALE, Target Tissue: Type of Lesion: PANCREAS: NEOPLASM, Dose [Carcinogen]: 10 MG/KG BW 1/WK FOR 15 WK); “?/24 (71%), ?/24 (25%), 65%, p<0.05” (Carcinogen: L-AZASERINE, 115-02-6, Dose [Inhibitor]: 2.0 MMOL/KG DIET DAILY FOR 336 D OUT OF 358 D STARTING 1 WK AFTER COMPLETION OF CARCINOGEN TREATMENT (STUDY DURATION: 66, Strain/Sex: WISTAR-LEWIS/FEMALE, Target Tissue: Type of Lesion: PANCREAS: NEOPLASM (ADENOMA, CARCINOMA IN SITU, CARCINOMA), Dose [Carcinogen]: 10 MG/KG BW 1/WK FOR 15 WK STARTING 15 WK PRIOR TO AGENT TREATMENT); 50%, 13%, 74%, not significant (Carcinogen: L-AZASERINE, 115-02-6, Dose [Inhibitor]: 2 MMOL/KG DIET DAILY FOR 336 D OUT OF 358 D STARTING 1 WK AFTER COMPLETION OF CARCINOGEN TREATMENT (STUDY DURATION: 66 W, Strain/Sex: WISTAR-LEWIS/FEMALE, Target Tissue: Type of Lesion: PANCREAS: ADENOMA, Dose [Carcinogen]: 10 MG/KG BW 1/WK FOR 15 WK). For the same compound, the “tumour outcome (control, treated, inhibition, significance)” value was 8%, 13%, -63%, not significant (Carcinogen: L-AZASERINE, 115-02-6, Dose [Inhibitor]: 2 MMOL/KG DIET DAILY FOR 336 D OUT OF 358 D STARTING 1 WK AFTER COMPLETION OF CARCINOGEN TREATMENT (STUDY DURATION: 66 W, Strain/Sex: WISTAR-LEWIS/FEMALE, Target Tissue: Type of Lesion: PANCREAS: CARCINOMA IN SITU, Dose [Carcinogen]: 10 MG/KG BW 1/WK FOR 15 WK); “?/24 (13%), ?/24 (0%), 100%, not significant” (Carcinogen: L-AZASERINE, 115-02-6, Dose [Inhibitor]: 2 MMOL/KG DIET DAILY FOR 336 D OUT OF 358 D STARTING 1 WK AFTER COMPLETION OF CARCINOGEN TREATMENT (STUDY DURATION: 66 W, Strain/Sex: WISTAR-LEWIS/FEMALE, Target Tissue: Type of Lesion: PANCREAS: CARCINOMA, Dose [Carcinogen]: 10 MG/KG BW 1/WK FOR 15 WK STARTING 15 WK PRIOR TO AGENT TREATMENT); 25%, 28%, -12%, not significant (Carcinogen: L-AZASERINE, 115-02-6, Dose [Inhibitor]: 2 MMOL/KG DIET DAILY FOR 336 D OUT OF 358 D STARTING 1 WK AFTER COMPLETION OF CARCINOGEN TREATMENT (STUDY DURATION: 66 W, Strain/Sex: WISTAR-LEWIS/MALE, Target Tissue: Type of Lesion: PANCREAS: ADENOMA, Dose [Carcinogen]: 10 MG/KG BW 1/WK FOR 15 WK); 29%, 44%, -52%, not significant (Carcinogen: L-AZASERINE, 115-02-6, Dose [Inhibitor]: 2 MMOL/KG DIET DAILY FOR 336 D OUT OF 358 D STARTING 1 WK AFTER COMPLETION OF CARCINOGEN TREATMENT (STUDY DURATION: 66 W, Strain/Sex: WISTAR-LEWIS/MALE, Target Tissue: Type of Lesion: PANCREAS: CARCINOMA IN SITU, Dose [Carcinogen]: 10 MG/KG BW 1/WK FOR 15 WK); 46%, 4%, 91%, p<0.05 (Carcinogen: L-AZASERINE, 115-02-6, Dose [Inhibitor]: 2 MMOL/KG DIET DAILY FOR 336 D OUT OF 358 D STARTING 1 WK AFTER COMPLETION OF CARCINOGEN TREATMENT (STUDY DURATION: 66 W, Strain/Sex: WISTAR-LEWIS/MALE, Target Tissue: Type of Lesion: PANCREAS: CARCINOMA, Dose [Carcinogen]: 10 MG/KG BW 1/WK FOR 15 WK); 100%, 76%, 24%, not significant (Carcinogen: L-AZASERINE, 115-02-6, Dose [Inhibitor]: 2 MMOL/KG DIET DAILY FOR 336 D OUT OF 358 D STARTING 1 WK AFTER COMPLETION OF CARCINOGEN TREATMENT (STUDY DURATION: 66 W, Strain/Sex: WISTAR-LEWIS/MALE, Target Tissue: Type of Lesion: PANCREAS: NEOPLASM, Dose [Carcinogen]: 10 MG/KG BW 1/WK FOR 15 WK). Also, the “tumour outcome (control, treated, inhibition, significance)” value is given as 105/200 (53%), 67/100 (67%), -26%, p 0.0167 (Carcinogen: N-(4-(5-NITRO-2-FURYL)-2-THIAZOLYL)FORMAMIDE, 24554-26-5, Dose [Inhibitor]: 343 MG/KG DIET DAILY FOR 39 WK STARTING ONE WK FOLLOWING THE TERMINATION OF CARCINOGEN ADMINISTRATION (STUDY DURATION: 5, Strain/Sex: F344/FEMALE, Target Tissue: Type of Lesion: URINARY BLADDER: CARCINOMA, Dose [Carcinogen]: 2 G/KG IN DIET DAILY FOR 10 WK); 105/200 (53%), 67/100 (67%), -26%, p 0.0167 (Carcinogen: N-(4-(5-NITRO-2-FURYL)-2-THIAZOLYL)FORMAMIDE, 24554-26-5, Dose [Inhibitor]: 343 MG/KG/D IN DIET FOR 39 WK STARTING 1 WK POST CARCINOGEN TREATMENT (STUDY DURATION: 50 WK), Strain/Sex: F344/FEMALE, Target Tissue: Type of Lesion: URINARY BLADDER: CARCINOMA, Dose [Carcinogen]: 2 G/KG/D IN DIET FOR 10 WK); 15/200 (7.5%), 24/100 (24%), -220%, p 0.00006 (Carcinogen: N-(4-(5-NITRO-2-FURYL)-2-THIAZOLYL)FORMAMIDE, 24554-26-5, Dose [Inhibitor]: 343 MG/KG/D IN DIET FOR 39 WK STARTING 1 WK POST CARCINOGEN TREATMENT (STUDY DURATION: 50 WK), Strain/Sex: F344/FEMALE, Target Tissue: Type of Lesion: URINARY BLADDER: PAPILLOMA, Dose [Carcinogen]: 2 G/KG/D IN DIET FOR 10 WK); 105/200 (53%), 49/100 (49%), 8%, p 0.5657 (Carcinogen: N-(4-(5-NITRO-2-FURYL)-2-THIAZOLYL)FORMAMIDE, 24554-26-5, Dose [Inhibitor]: 686 MG/KG DIET DAILY FOR 39 WK STARTING ONE WK FOLLOWING THE TERMINATION OF CARCINOGEN ADMINISTRATION (STUDY DURATION: 5, Strain/Sex: F344/FEMALE, Target Tissue: Type of Lesion: URINARY BLADDER: CARCINOMA, Dose [Carcinogen]: 2 G/KG IN DIET DAILY FOR 10 WK); 15/200 (8%), 17/100 (17%), -113%, p 0.012 (Carcinogen: N-(4-(5-NITRO-2-FURYL)-2-THIAZOLYL)FORMAMIDE, 24554-26-5, Dose [Inhibitor]: 686 MG/KG DIET DAILY FOR 39 WK STARTING ONE WK FOLLOWING THE TERMINATION OF CARCINOGEN ADMINISTRATION (STUDY DURATION: 5, Strain/Sex: F344/FEMALE, Target Tissue: Type of Lesion: URINARY BLADDER: PAPILLOMA, Dose [Carcinogen]: 2 G/KG IN DIET DAILY FOR 10 WK).
